# Biological target: SINV nsP2 (Sindbis virus, UniProt P03317)
# Sequence (P03317 541-1347): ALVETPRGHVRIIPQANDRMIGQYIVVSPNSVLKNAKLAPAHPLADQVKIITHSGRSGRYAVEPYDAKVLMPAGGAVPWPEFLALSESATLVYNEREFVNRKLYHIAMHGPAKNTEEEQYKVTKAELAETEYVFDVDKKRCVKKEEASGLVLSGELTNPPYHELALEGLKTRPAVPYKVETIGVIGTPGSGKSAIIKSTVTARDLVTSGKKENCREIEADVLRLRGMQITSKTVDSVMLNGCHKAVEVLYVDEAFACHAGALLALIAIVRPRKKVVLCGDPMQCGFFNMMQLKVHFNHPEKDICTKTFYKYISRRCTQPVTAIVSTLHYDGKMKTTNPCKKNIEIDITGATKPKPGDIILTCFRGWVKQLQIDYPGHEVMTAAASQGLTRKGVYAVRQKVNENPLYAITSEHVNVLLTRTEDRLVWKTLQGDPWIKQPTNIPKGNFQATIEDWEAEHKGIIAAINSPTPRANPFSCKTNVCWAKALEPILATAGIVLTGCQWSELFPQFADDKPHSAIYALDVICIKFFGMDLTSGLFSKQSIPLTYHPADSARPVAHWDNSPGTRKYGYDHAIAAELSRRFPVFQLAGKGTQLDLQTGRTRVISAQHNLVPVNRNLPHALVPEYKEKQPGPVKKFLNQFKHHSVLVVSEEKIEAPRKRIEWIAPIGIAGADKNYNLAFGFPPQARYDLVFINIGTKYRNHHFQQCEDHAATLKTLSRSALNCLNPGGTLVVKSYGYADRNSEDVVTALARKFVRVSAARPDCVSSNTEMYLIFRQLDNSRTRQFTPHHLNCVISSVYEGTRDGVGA
smiles,measurement,value
Nc1ncnc2c1ncn2[C@@H]1O[C@H](COP(=O)(O)OP(=O)(O)OP(=O)(O)O)[C@@H](O)[C@H]1O [ATP],Km,these additions increase the ATPase Km

# Reference: article doi:10.1101/2025.06.03.657755v1 (biorxiv, 2025)
